Marks after values point to notes of the source that are not given here.
What was measured:
[1] = tested on: Diet Induced Obese (DIO) mice; test: Body weight and fat mass in Diet Induced Obese mice, 21-day study (Example 7); type: in vivo, Male C57BL/6 mice; conditions: male DIO mice, Mean (SD)
Experimental: Male C57BL/6 mice were maintained on a high fat diet for 12 to 22 weeks to develop diet induced obesity. Animals were randomized to treatment groups based on blood glucose levels and body weight. The peptides (SEQ ID No: 208 and SEQ ID NO: 210) were each administered to a group of male DIO mice twice daily by appropriate routes at a dose of 15 mg/kg/dose for 21 days (N=8 to 12 animals per treatment group). […] Metabolic parameters including body weight, blood glucose levels and food intake were monitored. Body mass distribution (fat vs lean) was determined where appropriate by quantitative whole body NMR prior to dosing and at the end of dosing.

[2] = tested on: STAM Mouse Model of Non-alcoholic Steatohepatitis (NASH); test: NAFLD activity score in STAM mouse model of NASH (Example 18); type: in vivo, C57/BL6 mice; conditions: male STAM mice, N = 8, Mean (SD)
Experimental: In the STAM® model of NASH, C57/BL6 mice were injected with a single subcutaneous dose of 200 μg […], two days after birth to destroy pancreatic j-cells. At the age of 4 weeks, animals were put on a high fat diet (57% kcal from fat) and maintained on the same diet throughout the study. […] Beginning at 6 weeks of age, groups of STAM animals (8 animals per group) were treated with the peptides of the present invention administered twice daily by intraperitoneal injection, until study termination. A control group of STAM animals (n=8) received daily doses of telmisartan control compound (10 mg/kg). An additional group of normal mice (n=8) received no treatment. After 21 days of dosing, at 9 weeks of age, metabolic parameters were determined and animals were sacrificed. Liver samples were obtained and fixed, embedded in paraffin, stained with hematoxylin and eosin, and examined by light microscopy. The extent of steatosis and the non-alcoholic fatty liver disease (NAFLD) activity score (NAS) were determined histopathologically according to methods known in the art.

[3] = tested on: STAM Mouse Model of Non-alcoholic Steatohepatitis (NASH); test: Liver triglyceride and plasma ALT levels in STAM mouse model of NASH (Example 19); type: in vivo, C57/BL6 mice; conditions: male STAM mice, N = 8, Mean (SD)
Experimental: In the STAM® model of NASH, C57/BL6 mice were injected with a single subcutaneous dose of 200 μg […], two days after birth to destroy pancreatic j-cells. At the age of 4 weeks, animals were put on a high fat diet (57% kcal from fat) and maintained on the same diet throughout the study. […] […] A control group of STAM animals (n=8) received daily doses of telmisartan control compound (10 mg/kg). An additional group of normal mice (n=8) received no treatment. After 21 days of dosing, at 9 weeks of age, metabolic parameters were determined and animals were sacrificed. Liver triglyceride levels were determined by homogenization in chloroform-methanol and incubation overnight at room temperature. After washing with chloroform-methanol-water, the extracts were evaporated to dryness and dissolved in isopropanol. Liver triglyceride content was then measured by Triglyceride E-test (Wako, Japan). Plasma ALT levels were determined by using Fuji Dri-Chem 7000 (Fujifilm, Japan).

[4] = tested on: Diet Induced Obese (DIO) mice; test: Body weight and fat mass in Diet Induced Obese mice, 10 days (Example 20); type: in vivo, Male C57BL/6 mice; conditions: male DIO mice; 10 days twice daily intraperitoneal 15 mg/kg; N = 8; Mean (SEM)
Experimental: Male C57BL/6 mice were maintained on a high fat diet for 18 weeks to develop diet induced obesity. Animals were randomized to treatment groups based on blood glucose levels and body weight. The peptides of the invention were administered to two groups of male DIG mice once or twice daily by intraperitoneal or subcutaneous injection at a doses of 5 to 15 mg/kg/dose for 10 days (N=8 animals per treatment group). An additional group of male DIG mice (n=8) received vehicle (water or saline) alone. Body weight, blood glucose levels and food intake were monitored. Body mass distribution (fat vs lean) was determined by quantitative whole body NMR prior to dosing and at the end of dosing. Administration of the peptides of the invention produced body weight loss and/or decrease in fat mass from baseline values (Table 18).

3T3-L1 Adipocytes = test: Free fatty acid levels in cultured mouse 3T3-L1 adipocytes, isoproterenol stimulated (Example 17); type: cell-based; conditions: Peptide Concentration 25 μM; isoproterenol 1 nM
In short: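 Differentiated 3T3-L1 adipocytes (12-17 days) given test peptides at 25-50 μM for 18-20 h, then 3 h with peptides plus 1 nM isoproterenol at 37 °C. Medium free fatty acids read colorimetrically at 540 nm, background-corrected and expressed relative to isoproterenol-only cells.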

[5] = tested on: Diet Induced Obese (DIO) mice; test: Serum triglycerides and enzyme markers of liver damage in DIO mice, 21 days (Example 9); type: in vivo, Male C57BL/6 mice; conditions: male DIO mice; for reduction in serum ALT compared to liraglutide or vehicle alone / reduction in serum AST compared to liraglutide or vehicle alone / reduction in serum triglycerides compared to liraglutide or vehicle alone: 21 days twice daily 15 mg/kg/dose; for ALT (U/L), mean concentration in serum / AST (U/L), mean concentration in serum / Triglycerides (mg/dL), mean concentration in serum: 21 days twice daily IP 15 mg/kg/dose, serum 2 hours after first dose on Day 21
Experimental: Male C57BL/6 mice were maintained on a high fat diet for 12 to 22 weeks to develop diet induced obesity. Animals were randomized to treatment groups based on blood glucose levels and body weight. The peptides (SEQ ID No: 208, and SEQ ID NO: 210) were each administered to a group of male DIG mice twice daily by appropriate routes at a dose of 15 mg/kg/dose for 21 days (N=8 to 12 animals per treatment group). […] Serum samples were obtained at termination 2 hours after the first dose on Day 21. Samples were analyzed for standard clinical chemistry parameters by methods well known in the art.

[6] = 21 days twice daily IP 15 mg/kg/dose
[7] = 21 days IP BID 15 mg/kg/dose beginning at 6 weeks of age

## CCc1ccc(CCOc2ccc(CC3SC(=O)NC3=O)cc2)nc1 (centres unmarked) [Pioglitazone, pioglitazone, reference compound]
[1]; 21 days twice daily PO 15 mg/kg/dose
  Decrease from Baseline in Body Weight (%): 1.0 (3.1) %

## CCCc1nc2c(C)cc(-c3nc4ccccc4n3C)cc2n1Cc1ccc(-c2ccccc2C(=O)O)cc1 [Telmisartan, telmisartan, reference compound]
[2]; 21 days PO QD 10 mg/kg/dose beginning at 6 weeks of age
  NAFLD Activity Score (NAS): 2.6 (0.5)*
[3]; 21 days PO BID 10 mg/kg
  Liver Triglyceride Levels (mg/g liver): 18.8 (5.8)* mg/g liver
  Plasma ALT (U/L): 39 (6)* U/L

## H-EMNYIFYPR-OH [compound 364]
[4]
  Decrease from Baseline in Body Weight (%): −6.6 (1.6) %
  Decrease from Baseline in Fat Mass (g): −3.7 (1.2) g
3T3-L1 Adipocytes
  Free Fatty Acid Levels in 3T3-L1 Adipocytes Expressed as a Percent of Isoproterenol Control: Percent of Control Value: 87.2%

## H-MRWQEMGYIFYPRKLR-OH [SEQ ID NO: 2, reference compound]
[1]; [6]
  Decrease from Baseline in Body Weight (%): −9.3 (5.0) %

## H-MRWQEMNYIFYPR-OH [SEQ ID NO: 208]
[2]; [7]
  NAFLD Activity Score (NAS): 3.7 (0.5)*
[3]; [7]
  Liver Triglyceride Levels (mg/g liver): 35.3 (15.1)* mg/g liver
  Plasma ALT (U/L): 43 (16)* U/L
[5]
  reduction in serum ALT compared to liraglutide or vehicle alone: greater reduction
  reduction in serum AST compared to liraglutide or vehicle alone: greater reduction
  reduction in serum triglycerides compared to liraglutide or vehicle alone: greater reduction
  ALT (U/L), mean concentration in serum: 40.4 U/L
  AST (U/L), mean concentration in serum: 70.0 U/L
  Triglycerides (mg/dL), mean concentration in serum: 76.0 mg/dL
[1]; [6]
  Decrease from Baseline in Body Weight (%): −17.2 (3.0) %
  Decrease from Baseline in Fat Mass (g): −6.4 (0.5) g

## H-NYIFYPR-OH [compound 361]
[4]
  Decrease from Baseline in Body Weight (%): −5.8 (0.8) %
  Decrease from Baseline in Fat Mass (g): −3.8 (0.5) g
3T3-L1 Adipocytes
  Free Fatty Acid Levels in 3T3-L1 Adipocytes Expressed as a Percent of Isoproterenol Control: Percent of Control Value: 76.3%

## H-RWQEMNYIFYPR-OH [SEQ ID NO: 210]
[2]; [7]
  NAFLD Activity Score (NAS): 3.3 (1.1)*
[3]; [7]
  Liver Triglyceride Levels (mg/g liver): 43.6 (9.3)* mg/g liver
  Plasma ALT (U/L): 37 (13)* U/L
[5]
  reduction in serum ALT compared to liraglutide or vehicle alone: greater reduction
  reduction in serum AST compared to liraglutide or vehicle alone: greater reduction
  reduction in serum triglycerides compared to liraglutide or vehicle alone: greater reduction
  ALT (U/L), mean concentration in serum: 45.0 U/L
  AST (U/L), mean concentration in serum: 125 U/L
  Triglycerides (mg/dL), mean concentration in serum: 93.0 mg/dL
[1]; [6]
  Decrease from Baseline in Body Weight (%): −14.1 (4.8) %
